Data taken from patent US20070032551A1, “Salt of dimethylaminomethyl-phenyl-cyclohexane and crystalline forms thereof” (GRUENENTHAL GMBH, priority 2005, published 2007).

Tests used:
[1] = Water uptake of fumarate and hydrochloride by DVS (Example E8); format: physicochemical; conditions: 25° C.
Method: The water uptake is determined by means of dynamic water vapor uptake (dynamic vapor sorption, DVS) with the DVS-1 apparatus from Surface Measurement Systems Ltd. The sample is placed in a platinum crucible on the tip of a microbalance. The sample is then first equilibrated at 50% relative atmospheric humidity and subsequently subjected to a predefined measurement program. The temperature is 25° C. The change in weight of the sample after a stepwise increase in the relative atmospheric humidity by in each case 10% to 90% is determined.

[2] = Damp storage and drying of fumarate and hydrochloride (Example E9); format: physicochemical; conditions: for change in the crystalline form (X-ray diffraction diagrams): after damp storage and drying; for DW (dry weight), starting value / WC (Karl Fischer water content), starting value: before the start of the storage
Method: Fumarate and hydrochloride according to Example E8 are first stored at 25° C. and 75% and 95% relative atmospheric humidity for 7 days and thereafter at 50° C. in vacuo in a drying cabinet for 7 days. Before the start of the storage, the X-ray diffraction diagrams (XRD), DSC for determination of transition points (Tp) and dry weight (DW) and the Karl Fischer water content (WC) are determined, and the same values are determined after the damp storage and drying. The X-ray diffraction diagrams show no change in the crystalline forms A and D after damp storage and drying. The starting values for the hydrochloride are Tp=116.27° C., DW=6.35% and WC=8.00%. The starting values for the fumarate are Tp=93.11° C. and 175.14° C., DW=0 and WC=0.2%. The results are given in Tables 7 (75% relative atmospheric humidity) and 8 (95% relative atmospheric humidity).

[3] = Hygroscopicity (general statement); format: physicochemical
[4] = Solubility (general statement)
[5] = Bioavailability (general statement)
[6] = Storage at room temperature in high and low atmospheric humidity, crystal form by Raman (Examples E1-E3, B1); format: physicochemical; conditions: for crystalline form after storage / crystalline form after storage (Raman): room temperature
Method: Unless stated otherwise, the crystal forms are determined by comparison of the Raman spectra.
a) 30 mg of the amorphous fumarate prepared according to Example Bi are stored at room temperature and 75% relative atmospheric humidity for 5 days.
b) 30 mg of the amorphous fumarate prepared according to Example B2 are stored at room temperature and 90% relative atmospheric humidity for 3 days.
c) 30 mg of the amorphous fumarate prepared according to Example B2 are stored at room temperature and 53% relative atmospheric humidity for 2 months.
d) 30 mg of the amorphous fumarate prepared according to Example B2 are stored at room temperature and 22% relative atmospheric humidity for 2 months. Thereafter, the amorphous product is still present.
The fumarate prepared according to Example C3 is stored at room temperature and 75% relative atmospheric humidity, and after 3 days and 1, 2, 3, 4 and 8 weeks samples are analyzed by means of Raman spectroscopy.
The crystalline form B prepared according to Example A1 is stored at room temperature and 75% relative atmospheric humidity, and after 3 days and 1, 2, 3, 4 and 8 weeks samples are analyzed by means of Raman spectroscopy.

[7] = Water uptake by dynamic vapor sorption (Example E6); format: physicochemical; conditions: 25° C.; for crystalline form present at the end of the DVS measurement: fumarate; for water uptake: DVS
Method: The water uptake is determined by means of dynamic water vapor uptake (dynamic vapor sorption, DVS) with the DVS-1 apparatus from Surface Measurement Systems Ltd. The sample is placed in a platinum crucible on the tip of a microbalance. The sample is then first equilibrated at 50% relative atmospheric humidity and subsequently subjected to a predefined measurement program. The temperature is 25° C. The change in weight of the sample is determined.

[8] = Stability at elevated temperature, HPLC and FT Raman (Example E7); format: physicochemical; conditions: for stability at elevated temperature (in words): open and closed vessels
Method: The crystalline forms are stored in open and closed vessels and possible changes are measured as stability parameters by chromatography (HPLC) after a given time.

[9] = Stability under pressure, pressing of tablets (Example E5); format: physicochemical; conditions: 100 MPa in vacuo, 60 minutes
Method: The fumarate prepared according to Example C3 is introduced into a tablet press and pressed to a tablet under a pressure of 100 MPa in vacuo for 60 minutes.

[10] = Stability under grinding conditions (Example E4); format: physicochemical; conditions: for crystalline form after grinding: agate ball mill, 20 Hz, room temperature, 180 minutes; for crystalline form after trituration: pestle in a mortar dish, 5 minutes
Method: The fumarate prepared according to Example C3 is triturated with a pestle in a mortar dish for 5 minutes.
The fumarate prepared according to Example A1 is introduced into an agate ball mill (Retsch MM200 mixing mill with 5 mm agate balls) and ground at 20 Hz and room temperature for 180 minutes.

[11] = 75% r.h. storage, then drying at 50° C. in vacuo for 7 days
[12] = 95% r.h. storage, then drying at 50° C. in vacuo for 7 days
[13] = after damp storage, 25° C., 75% relative atmospheric humidity, 7 days
[14] = after damp storage, 25° C., 95% relative atmospheric humidity, 7 days
[15] = 75% relative atmospheric humidity, after 8 weeks, fumarate
[16] = 40° C./75% r.h., 1 week, fumarate
[17] = 60° C. (closed), 1 week, fumarate
[18] = 60° C. (closed), 4 weeks, fumarate
[19] = 60° C./75% r.h., 4 weeks, fumarate

Row | Compound | WC (%) [2, 11] | WC (%) [2, 12] | change in the crystalline form (X-ray diffraction diagrams) [2] | WC (%) [2, 13] | WC (%) [2, 14] | DW (dry weight), starting value [2] | WC (Karl Fischer water content), starting value [2] | hygroscopicity [3] | crystalline form present at the end of the DVS measurement [7] | crystalline form after storage (Raman) [6, 15] | HPLC [8, 16] | HPLC [8, 17] | HPLC [8, 18] | HPLC [8, 19] | stability at elevated temperature (in words) ([8]; fumarate) | HPLC ([8]; −18° C. (reference), 4 weeks) | water uptake ([7]; measurement cycle) | crystalline form after pressing to a tablet [9] | solubility in polar solvents [4] | further results
1 | CN(C)C[C@@H]1CCCC[C@H]1c1cccc(O)c1.Cl [Hydrochloride, (+)-(1R,2R)-3-[2-(Dimethylamino)methyl-(cyclohex-1-yl)]-phenol hydrochloride] | 6.00% | 6.60% | no change | 8.50% | 8.50% | 6.35% | 8.00% |  |  |  |  |  |  |  |  |  |  |  |  | water uptake in total ([1]; 90% relative atmospheric humidity): about 5 wt. %; water uptake ([1]; relative atmospheric humidity increased to about 75%): about 2 wt. %; water released on desorption, in total ([1]; stepwise lowering of relative atmospheric humidity by 10%): 8.5%; DW (%) [2, 11]: 6.12%; DW (%) [2, 12]: 6.74%; DW (%) [2, 13]: 5.92%; DW (%) [2, 14]: 7.84%
2 | CN(C)CC1CCCCC1c1cccc(O)c1.O=C(O)/C=C/C(=O)O (centres unmarked) [3-[2-(dimethylamino)methyl-(cyclohex-1-yl)]-phenol fumarate] |  |  |  |  |  |  |  | not hygroscopic |  |  |  |  |  |  |  |  |  |  |  | solubility ([4]; particularly in polar and protic solvents, including water): good; bioavailability [5]: good
3 | CN(C)CC1CCCCC1c1cccc(O)c1.Cl (centres unmarked) [3-[2-(dimethylamino)methyl-(cyclohex-1-yl)]-phenol hydrochloride, reference compound] |  |  |  |  |  |  |  | decidedly hygroscopic |  |  |  |  |  |  |  |  |  |  |  | 
4 | CN(C)C[C@@H]1CCCC[C@H]1c1cccc(O)c1.O=C(O)/C=C/C(=O)O [amorphous form, (+)-(1R,2R)-3-[2-(dimethylamino)methyl-(cyclohex-1-yl)]-phenol fumarate] |  |  |  |  |  |  |  |  | crystalline form A |  |  |  |  |  |  |  |  |  |  | form after storage ([6]; 22% relative atmospheric humidity and 25° C., after 2 months): still amorphous; crystalline form after storage ([6]; 22% relative atmospheric humidity, 2 months): still present; crystalline form after storage ([6]; 53% relative atmospheric humidity, 2 months): converted completely into the crystalline form B; crystalline form after storage ([6]; 75% relative atmospheric humidity, 5 days): converted completely into the crystalline form B; crystalline form after storage ([6]; 90% relative atmospheric humidity, 3 days): converted completely into the crystalline form B; water uptake ([7]; up to about 77% relative atmospheric humidity): about 6.5 wt. %
5 | CN(C)C[C@@H]1CCCC[C@H]1c1cccc(O)c1.O=C(O)/C=C/C(=O)O [crystalline form B, (+)-(1R,2R)-3-[2-(dimethylamino)methyl-(cyclohex-1-yl)]-phenol fumarate] | 0.30% | 0.30% | no change | 0.50% | 0.50% | 0% | 0.2% | not hygroscopic | unchanged | practically unchanged | 100.0% | 99.0% | 100.6% | 99.1% | very stable in respect of chemical stability | 100% | about 0.2 wt. % | mixture of the crystalline forms A and B | very good | release of absorbed moisture on desorption ([1]; at about 10% relative atmospheric humidity): released again completely; water uptake ([1]; stepwise increase of relative atmospheric humidity by 10% to 90%): 0.13%; crystalline form after grinding ([10]; fumarate): mixture of the crystalline forms A and B; crystalline form after grinding ([10]; listed as Example A1, fumarate): mixture of the crystalline form A and B; crystalline form after trituration ([10]; fumarate): unchanged
6 | CN(C)C[C@@H]1CCCC[C@H]1c1cccc(O)c1.O=C(O)/C=C/C(=O)O [crystalline form A, (+)-(1R,2R)-3-[2-(dimethylamino)methyl-(cyclohex-1-yl)]-phenol fumarate] |  |  |  |  |  |  |  |  | substantially the crystalline form B | crystalline form B is also present | 99.5% | 99.9% | 99.6% | 99.3% | very stable in respect of chemical stability and crystal form | 100% | about 0.2 wt. % | mixture of the crystalline forms A and B | very good | crystalline form after storage (Raman) ([6]; 75% relative atmospheric humidity, after 3 days): converted into the crystalline form B; FT Raman (determination of the crystalline form) ([8]; 60° C. (closed), 1 week): A and B; FT Raman (determination of the crystalline form) ([8]; 60° C. (closed), 4 weeks): A and B; FT Raman (determination of the crystalline form) ([8]; −18° C. (reference), 4 weeks): A and B; crystalline form after trituration ([10]; listed as Example C3, fumarate): mixture of the crystalline form A and B
